Experimental data from the kinase profiling compilation of Christmann-Franck et al. (2016).

How the values were obtained:
Assay in all cases: Caliper, Mobility shift assay off-chip
ABL1 (human) = ABL1 (human) (UniProt P00519)
AKT1 (human) = AKT1 (human) (UniProt P31749)
AKT2 (human) = AKT2 (human) (UniProt P31751)
AKT3 (human) = AKT3 (human) (UniProt Q9Y243)
ALK (human) = ALK (human) (UniProt Q9UM73)
AURKA (human) = AURKA (human) (UniProt O14965)
BMX (human) = BMX (human) (UniProt P51813)
CAMK2D (human) = CAMK2D (human) (UniProt Q13557); conditions: compound 1.0 µM
CAMK4 (human) = CAMK4 (human) (UniProt Q16566)
CDK2 (human) = CDK2 (human) (UniProt P24941)
CSNK1A1 (human) = CSNK1A1 (human) (UniProt P48729)
DCLK2 (human) = DCLK2 (human) (UniProt Q8N568)
Sequence of DCLK2 (human) (Q8N568 whole entry, looked up): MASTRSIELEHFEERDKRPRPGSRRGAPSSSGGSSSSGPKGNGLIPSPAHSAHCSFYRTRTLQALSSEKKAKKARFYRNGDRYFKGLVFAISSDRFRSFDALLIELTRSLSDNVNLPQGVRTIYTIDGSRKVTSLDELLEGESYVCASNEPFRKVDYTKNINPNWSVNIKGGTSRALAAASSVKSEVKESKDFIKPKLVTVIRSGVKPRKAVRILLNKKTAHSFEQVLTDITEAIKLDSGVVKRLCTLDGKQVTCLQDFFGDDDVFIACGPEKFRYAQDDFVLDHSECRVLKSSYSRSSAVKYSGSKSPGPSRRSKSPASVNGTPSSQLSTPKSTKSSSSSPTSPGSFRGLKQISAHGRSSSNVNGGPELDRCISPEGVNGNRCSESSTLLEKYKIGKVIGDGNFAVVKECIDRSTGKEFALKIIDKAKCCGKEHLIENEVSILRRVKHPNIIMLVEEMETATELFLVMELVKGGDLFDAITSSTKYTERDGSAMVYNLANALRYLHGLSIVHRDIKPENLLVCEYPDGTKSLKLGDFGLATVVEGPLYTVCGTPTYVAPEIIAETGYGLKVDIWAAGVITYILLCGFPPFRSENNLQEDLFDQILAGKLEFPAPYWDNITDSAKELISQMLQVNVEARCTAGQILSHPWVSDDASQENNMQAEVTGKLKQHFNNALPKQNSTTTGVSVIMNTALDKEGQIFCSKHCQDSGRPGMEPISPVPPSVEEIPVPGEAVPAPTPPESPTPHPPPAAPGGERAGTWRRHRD

EGFR (human) = EGFR (human) (UniProt P00533)
[1] = test system: EGFR (human), P00533 [T790M/L858R]
FER (human) = FER (human) (UniProt P16591)
FGFR1 (human) = FGFR1 (human) (UniProt P11362)
LYN (human) = LYN (human) (UniProt P07948)
MAP4K4 (human) = MAP4K4 (human) (UniProt O95819)
Sequence of MAP4K4 (human) (O95819 whole entry, looked up): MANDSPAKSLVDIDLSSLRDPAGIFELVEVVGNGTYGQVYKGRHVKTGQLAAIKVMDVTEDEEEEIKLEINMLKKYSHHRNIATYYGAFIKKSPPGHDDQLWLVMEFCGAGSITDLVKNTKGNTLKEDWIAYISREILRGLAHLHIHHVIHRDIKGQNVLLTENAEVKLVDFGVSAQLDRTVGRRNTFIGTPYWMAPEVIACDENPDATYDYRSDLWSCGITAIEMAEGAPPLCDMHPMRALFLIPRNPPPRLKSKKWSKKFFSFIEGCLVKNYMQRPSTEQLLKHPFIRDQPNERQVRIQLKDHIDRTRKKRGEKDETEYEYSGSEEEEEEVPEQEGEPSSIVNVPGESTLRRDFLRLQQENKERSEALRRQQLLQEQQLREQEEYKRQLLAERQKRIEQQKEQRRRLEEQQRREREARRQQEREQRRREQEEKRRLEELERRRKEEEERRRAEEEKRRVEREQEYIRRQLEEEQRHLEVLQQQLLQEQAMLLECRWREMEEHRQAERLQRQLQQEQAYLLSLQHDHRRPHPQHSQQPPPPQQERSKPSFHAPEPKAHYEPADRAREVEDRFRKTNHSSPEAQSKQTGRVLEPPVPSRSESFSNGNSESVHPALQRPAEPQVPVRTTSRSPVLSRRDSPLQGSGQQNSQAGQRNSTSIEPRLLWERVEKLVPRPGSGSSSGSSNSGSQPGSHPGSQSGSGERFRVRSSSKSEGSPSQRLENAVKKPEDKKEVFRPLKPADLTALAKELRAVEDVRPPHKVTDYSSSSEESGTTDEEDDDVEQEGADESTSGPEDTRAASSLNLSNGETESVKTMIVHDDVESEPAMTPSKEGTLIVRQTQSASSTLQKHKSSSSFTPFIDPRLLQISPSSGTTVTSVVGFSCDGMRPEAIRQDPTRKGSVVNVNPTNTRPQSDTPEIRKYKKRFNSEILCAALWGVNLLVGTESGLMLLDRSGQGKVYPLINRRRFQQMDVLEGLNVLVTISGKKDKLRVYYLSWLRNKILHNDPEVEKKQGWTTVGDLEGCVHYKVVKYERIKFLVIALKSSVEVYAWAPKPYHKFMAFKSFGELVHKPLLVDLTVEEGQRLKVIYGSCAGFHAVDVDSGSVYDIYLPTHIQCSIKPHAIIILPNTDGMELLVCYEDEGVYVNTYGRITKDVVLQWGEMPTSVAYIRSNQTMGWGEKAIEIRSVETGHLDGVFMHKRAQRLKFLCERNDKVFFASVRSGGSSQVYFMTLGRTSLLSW

MAPK3 (human) = MAPK3 (human) (UniProt P27361)
MAPKAPK5 (human) = MAPKAPK5 (human) (UniProt Q8IW41)
MELK (human) = MELK (human) (UniProt Q14680)
PAK2 (human) = PAK2 (human) (UniProt Q13177)
PHKG2 (human) = PHKG2 (human) (UniProt P15735)
PIM3 (human) = PIM3 (human) (UniProt Q86V86)
PRKCB2 (human) = PRKCB2 (human) (UniProt P05771)
PTK2B (human) = PTK2B (human) (UniProt Q14289)
RET (human) = RET (human) (UniProt P07949)
RPS6KA1 KD1 KD2 (human) = RPS6KA1 KD1 KD2 (human) (UniProt Q15418)
RPS6KA3 KD1 KD2 (human) = RPS6KA3 KD1 KD2 (human) (UniProt P51812)
Sequence of RPS6KA3 KD1 KD2 (human) (P51812 whole entry, looked up): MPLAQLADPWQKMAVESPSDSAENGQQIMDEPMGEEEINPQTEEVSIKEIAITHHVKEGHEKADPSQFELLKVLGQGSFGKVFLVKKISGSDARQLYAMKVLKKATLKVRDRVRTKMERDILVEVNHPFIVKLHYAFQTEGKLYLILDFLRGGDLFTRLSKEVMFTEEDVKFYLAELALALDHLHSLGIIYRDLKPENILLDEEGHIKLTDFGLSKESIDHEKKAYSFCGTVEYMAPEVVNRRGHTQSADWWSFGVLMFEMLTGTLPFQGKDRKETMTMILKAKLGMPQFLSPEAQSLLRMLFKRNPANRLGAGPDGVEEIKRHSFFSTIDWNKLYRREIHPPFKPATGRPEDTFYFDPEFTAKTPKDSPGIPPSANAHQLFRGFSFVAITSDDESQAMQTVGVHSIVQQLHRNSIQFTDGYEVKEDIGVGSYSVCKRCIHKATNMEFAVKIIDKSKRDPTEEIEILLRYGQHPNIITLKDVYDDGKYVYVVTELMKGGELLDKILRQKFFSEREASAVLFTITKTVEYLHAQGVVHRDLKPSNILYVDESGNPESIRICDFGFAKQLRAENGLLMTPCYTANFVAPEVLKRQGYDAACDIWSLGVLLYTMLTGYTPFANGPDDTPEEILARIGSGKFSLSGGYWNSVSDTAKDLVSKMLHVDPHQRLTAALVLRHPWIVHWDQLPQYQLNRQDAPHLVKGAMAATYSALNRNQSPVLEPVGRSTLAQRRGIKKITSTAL

SGK1 (human) = SGK1 (human) (UniProt O00141)
STK3 (human) = STK3 (human) (UniProt Q13188)
SYK (human) = SYK (human) (UniProt P43405)
TYRO3 (human) = TYRO3 (human) (UniProt Q06418)

Sequence of AKT3 (human) (Q9Y243 whole entry, looked up): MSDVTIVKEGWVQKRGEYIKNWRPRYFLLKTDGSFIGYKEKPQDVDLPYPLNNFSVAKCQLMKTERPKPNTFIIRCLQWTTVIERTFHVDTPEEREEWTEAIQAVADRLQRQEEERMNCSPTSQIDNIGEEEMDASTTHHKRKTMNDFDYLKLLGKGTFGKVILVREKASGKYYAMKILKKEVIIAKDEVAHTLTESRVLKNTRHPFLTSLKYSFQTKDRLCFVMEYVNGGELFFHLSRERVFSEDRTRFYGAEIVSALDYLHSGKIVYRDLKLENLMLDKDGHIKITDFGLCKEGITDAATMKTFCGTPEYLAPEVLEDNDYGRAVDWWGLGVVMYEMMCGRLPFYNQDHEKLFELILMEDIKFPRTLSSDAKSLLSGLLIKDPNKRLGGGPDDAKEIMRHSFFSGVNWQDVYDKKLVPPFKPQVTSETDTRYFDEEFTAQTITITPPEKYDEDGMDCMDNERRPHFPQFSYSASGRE
Sequence of AURKA (human) (O14965 whole entry, looked up): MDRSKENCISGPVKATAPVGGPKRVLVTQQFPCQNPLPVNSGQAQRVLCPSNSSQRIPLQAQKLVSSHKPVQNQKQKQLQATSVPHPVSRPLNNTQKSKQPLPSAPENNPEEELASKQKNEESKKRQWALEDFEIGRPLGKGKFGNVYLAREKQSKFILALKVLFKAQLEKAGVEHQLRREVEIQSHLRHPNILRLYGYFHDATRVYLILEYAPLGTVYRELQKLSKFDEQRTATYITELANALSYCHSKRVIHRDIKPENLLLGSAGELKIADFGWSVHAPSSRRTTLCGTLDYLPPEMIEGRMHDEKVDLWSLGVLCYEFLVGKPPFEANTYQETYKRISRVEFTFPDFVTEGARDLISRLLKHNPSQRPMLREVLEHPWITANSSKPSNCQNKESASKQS
Sequence of AKT1 (human) (P31749 whole entry, looked up): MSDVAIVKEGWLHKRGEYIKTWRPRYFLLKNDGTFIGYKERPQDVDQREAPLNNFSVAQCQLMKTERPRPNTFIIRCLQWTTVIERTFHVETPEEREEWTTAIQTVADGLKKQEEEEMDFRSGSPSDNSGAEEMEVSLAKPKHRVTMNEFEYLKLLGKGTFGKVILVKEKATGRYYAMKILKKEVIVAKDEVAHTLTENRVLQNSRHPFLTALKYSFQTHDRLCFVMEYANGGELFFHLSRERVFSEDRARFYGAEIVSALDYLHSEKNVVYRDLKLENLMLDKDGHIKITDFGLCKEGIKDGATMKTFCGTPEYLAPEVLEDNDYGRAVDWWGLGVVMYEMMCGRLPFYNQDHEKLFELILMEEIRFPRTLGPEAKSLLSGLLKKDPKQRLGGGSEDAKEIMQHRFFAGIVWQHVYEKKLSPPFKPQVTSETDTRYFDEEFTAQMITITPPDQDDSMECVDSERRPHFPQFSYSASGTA
Sequence of AKT2 (human) (P31751 whole entry, looked up): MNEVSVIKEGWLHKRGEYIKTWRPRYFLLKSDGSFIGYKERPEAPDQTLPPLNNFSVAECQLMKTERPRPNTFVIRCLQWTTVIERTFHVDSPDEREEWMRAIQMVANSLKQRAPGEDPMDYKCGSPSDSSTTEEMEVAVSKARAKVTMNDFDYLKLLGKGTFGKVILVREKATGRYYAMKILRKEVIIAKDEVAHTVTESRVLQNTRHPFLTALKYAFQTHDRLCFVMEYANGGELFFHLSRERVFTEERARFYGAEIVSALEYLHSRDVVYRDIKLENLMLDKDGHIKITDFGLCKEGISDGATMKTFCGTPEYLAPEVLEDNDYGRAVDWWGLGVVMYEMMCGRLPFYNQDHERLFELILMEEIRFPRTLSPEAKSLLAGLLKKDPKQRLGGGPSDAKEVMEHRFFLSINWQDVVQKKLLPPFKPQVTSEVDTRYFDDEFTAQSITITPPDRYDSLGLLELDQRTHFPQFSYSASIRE

## CN(c1ccc2ccc3ncc(-c4cnn(C)c4)cc3c(=O)c2c1)S(=O)(=O)NCc1ccccn1
ABL1 (human); compound 0.1 µM
  inhibition: 8.2%
ABL1 (human); compound 1.0 µM
  inhibition: 36.3%
AKT1 (human); compound 0.1 µM
  inhibition: -4.1%
AKT1 (human); compound 1.0 µM
  inhibition: 6.2%
AKT2 (human); compound 0.1 µM
  inhibition: -4.1%
AKT2 (human); compound 1.0 µM
  inhibition: -15.8%
AKT3 (human); compound 0.1 µM
  inhibition: 6.2%
AKT3 (human); compound 1.0 µM
  inhibition: 5.2%
ALK (human); compound 0.1 µM
  inhibition: -0.1%
ALK (human); compound 1.0 µM
  inhibition: 12.2%
AURKA (human); compound 0.1 µM
  inhibition: 39.7%
AURKA (human); compound 1.0 µM
  inhibition: 87.5%
BMX (human); compound 0.1 µM
  inhibition: 1.8%
BMX (human); compound 1.0 µM
  inhibition: 8%
CAMK2D (human)
  inhibition: -1.3%
CAMK4 (human); compound 0.1 µM
  inhibition: -0.2%
CAMK4 (human); compound 1.0 µM
  inhibition: 8%
CDK2 (human); compound 0.1 µM
  inhibition: 3.1%
CDK2 (human); compound 1.0 µM
  inhibition: 4.8%
CSNK1A1 (human); compound 0.1 µM
  inhibition: -7.8%
CSNK1A1 (human); compound 1.0 µM
  inhibition: 7.2%
DCLK2 (human); compound 0.1 µM
  inhibition: 8.6%
DCLK2 (human); compound 1.0 µM
  inhibition: 4.1%
EGFR (human); compound 0.1 µM
  inhibition: -4.8%
EGFR (human); compound 1.0 µM
  inhibition: 7%
[1]; compound 0.1 µM
  inhibition: 6.2%
[1]; compound 1.0 µM
  inhibition: 2.9%
FER (human); compound 0.1 µM
  inhibition: 24.1%
FER (human); compound 1.0 µM
  inhibition: -2.5%
FGFR1 (human); compound 0.1 µM
  inhibition: -11.4%
FGFR1 (human); compound 1.0 µM
  inhibition: 26.7%
LYN (human); compound 0.1 µM
  inhibition: 2.5%
LYN (human); compound 1.0 µM
  inhibition: 25.1%
MAP4K4 (human); compound 0.1 µM
  inhibition: 18.6%
MAP4K4 (human); compound 1.0 µM
  inhibition: 56.3%
MAPK3 (human); compound 0.1 µM
  inhibition: 0.9%
MAPK3 (human); compound 1.0 µM
  inhibition: -7.3%
MAPKAPK5 (human); compound 0.1 µM
  inhibition: 10.5%
MAPKAPK5 (human); compound 1.0 µM
  inhibition: 3%
MELK (human); compound 0.1 µM
  inhibition: 11.5%
MELK (human); compound 1.0 µM
  inhibition: 45.5%
PAK2 (human); compound 0.1 µM
  inhibition: 10.2%
PAK2 (human); compound 1.0 µM
  inhibition: 5.3%
PHKG2 (human); compound 0.1 µM
  inhibition: 17.8%
PHKG2 (human); compound 1.0 µM
  inhibition: 12.7%
PIM3 (human); compound 0.1 µM
  inhibition: 4%
PIM3 (human); compound 1.0 µM
  inhibition: 0.2%
PRKCB2 (human); compound 0.1 µM
  inhibition: 2.8%
PRKCB2 (human); compound 1.0 µM
  inhibition: 8.1%
PTK2B (human); compound 0.1 µM
  inhibition: -3.9%
PTK2B (human); compound 1.0 µM
  inhibition: 3.2%
RET (human); compound 0.1 µM
  inhibition: 7.4%
RET (human); compound 1.0 µM
  inhibition: 44.1%
RPS6KA1 KD1 KD2 (human); compound 0.1 µM
  inhibition: -2.7%
RPS6KA1 KD1 KD2 (human); compound 1.0 µM
  inhibition: 2.1%
RPS6KA3 KD1 KD2 (human); compound 0.1 µM
  inhibition: -1.9%
RPS6KA3 KD1 KD2 (human); compound 1.0 µM
  inhibition: 12.9%
SGK1 (human); compound 0.1 µM
  inhibition: -0.4%
SGK1 (human); compound 1.0 µM
  inhibition: 6.4%
STK3 (human); compound 0.1 µM
  inhibition: -6%
STK3 (human); compound 1.0 µM
  inhibition: 7.6%
SYK (human); compound 0.1 µM
  inhibition: 8.7%
SYK (human); compound 1.0 µM
  inhibition: 15.8%
TYRO3 (human); compound 0.1 µM
  inhibition: 20.2%
TYRO3 (human); compound 1.0 µM
  inhibition: 66.3%
